According to patent US4550179A, “N-(1-Allyl-2-pyrrolidinyl-methyl) 2-methoxy-4-amino-5-methylsulfamoyl benzamide” (Societe d'Etudes Scientifiques et Industrielles de l'Ile-de …, priority 1980, dated 1985):

Columns and labels:
[1] = tested on: noradrenalin; assay: hypertensive response to noradrenalin, anaesthetised dog; type: in vivo; details: for % reduction relative to control hypertension (R): noradrenalin
Text: The effects of the benzamide on the cardiovascular system were studied in a dog anaesthetised with chloralose, with the following results:
Noradrenalin 0.5 R = 21%

[2] = tested on: migraine; assay: comparative study with Pizotifene in migraine; type: in vivo; details: 17 migraine patients, 150 mg per day orally
Description: (2) A comparative study with Pizotifene, an anti-histamine and antiserotonin compound which is also used in the basic treatment for migraine.
The study covered 17 patients suffering true attacks of migraine of regular frequency, which thus enabled the effectiveness of the treatment to be assessed from the number and intensity of attacks during a period of one month.
The benzamide according to the invention was applied orally in a dose of 150 mg per day, in three times. The Pizotifene was also administered orally, with the progressive dosage recommended for the product (0.73 mg×1 for 3 days-0.73 mg×2 for 3 days-0.73 mg×3 for 24 days).
The patients were distributed at random between the treatments.

[3] = tested on: rat; assay: stereotypic movements of the rat caused by dopaminergic agonists (apomorphine or amphetamine); type: in vivo
[4] = tested on: isolated uterus; assay: serotonin-induced contraction of isolated uterus; details: isolated uterus of a rat, contraction produced by serotonin
Description: inhibited contraction of the isolated uterus of a rat, produced by serotonin. The contraction inhibiting dose 50 is of the order of 0.2 mg/l.

[5] = tested on: histamine; assay: interaction with histamine, isolated ileum of guinea pig
Text: (§1) Finally, researchers looked for interaction between the benzamide according to the invention and histamine, in the arterial pressure of an anaesthetised dog and the isolated ileum of a guinea pig.

[6] = tested on: carotid arteries; assay: hypertensive response to blocking of carotid arteries, anaesthetised dog; type: in vivo; details: for % reduction relative to control hypertension (R): blocking of carotid arteries for 30 seconds
Text: (§2) The effects of the benzamide on the cardiovascular system were studied in a dog anaesthetised with chloralose, with the following results: […]

[7] = tested on: cerebral arteries; assay: cerebral haemodynamics of migraine patients (pulsatility of cerebral arteries); type: in vivo
Description: The first clinical pharmacological investigation consisted of exploring the cerebral haemodynamics of migraine patients by a non-invasive method, through recording the pulsatility of the cerebral arteries. […] Graphs were thus plotted after the benzamide according to the invention had been absorbed by migraine patients.
This is maintained under treatment with repeated doses (150 mg/day) given orally for 3 weeks.

[8] = tested on: mice; assay: duration of barbituric (pentobarbital) hypnosis; type: in vivo, mouse
Description: Adminis- Dose Time of hypnosis, mice treated
Product tration mg/kg Time of hypnosis, control mice
N.B. The barbiturate used is pentobarbital in a dose of 60 mg/kg given

[9] = tested on: nicotine; assay: hypertensive response to nicotine (orthosympathetic component), anaesthetised dog; type: in vivo; details: for % reduction of orthosympathetic component (R): nicotine
Text: as §2

[10] = tested on: mouse; assay: spontaneous motility of mouse, Activograph method; type: in vivo; details: read-out: inhibiting effect on spontaneous motility at maximum dose administered
Text: (§3) Spontaneous motility of mouse:
(§4) inhibiting effect observed at
(§5) maximum dose administered
(§6) Adminis- WINTER & Activograph

[11] = tested on: mouse; assay: spontaneous motility of mouse, WINTER & FLATAKER method; type: in vivo
Text: The researchers were looking for the effects of the benzamide on the central nervous system and particularly for any neuroleptic action.
as §3, §4, §5, §6

[12] = tested on: migraine; assay: open investigation in migraine out-patients; type: in vivo; details: 150 mg per day orally in 3 doses
Description: (3) An open investigation covering 80 patients, who were followed in out-patient treatment with 150 mg of benzamide per day, given orally in 3 doses: […]

[13] = tested on: hypotensive response to acetylcholine or to excitation of the vagus nerve; assay: hypotensive response to acetylcholine or excitation of the vagus nerve, anaesthetised dog; type: in vivo
Text: as §2

[14] = tested on: serotonin; assay: gastric ulcer producing effect of serotonin in the rat; type: in vivo; details: sc, subcutaneously, read-out: effective dose 50 (protection against gastric ulcer producing effect of serotonin)
[15] = tested on: histamine; assay: interaction with histamine, arterial pressure of anaesthetised dog; type: in vivo
Text: as §1

[16] = anticonvulsive action (electric shock, pentetrazol, nicotine, auditory stimulus); type: in vivo; details: nicotine or auditory stimulus
[17] = tested on: migraine; assay: comparative crossed double blind study versus oxetorone in migraine; type: in vivo; details: 63 migraine patients, 150 mg per day vs oxetorone 120 mg, 30 days
Text: (1) A comparative study, by a crossed double blind method, the reference product being oxetorone, which is medically known, applied to migraine. The study covered 63 migraine patients, the two treatments being applied for 30 days with an adequate interruption between sequences.

[18] = tested on: adrenalin; assay: hypertensive response to adrenalin, anaesthetised dog; type: in vivo; details: for % reduction relative to control hypertension (R): adrenalin
Text: as §2

[19] = acute toxicity (lethal dose 50); details: in vivo, male mouse

Which “hypertensive responses caused by noradrenalin” value ([1]; anaesthetised dog) does the source give for `C=CCN1CCCC1CNC(=O)c1cc(S(=O)(=O)NC)c(N)cc1OC` (stereo not shown) [Benzamide according to the invention, N-(1-allyl-2-pyrrolidinyl-methyl)2-methoxy-4-amino-5-methylsulfamoyl benzamide] here?
The value was “reduces the hypertensive responses”.

What about the “% reduction relative to control hypertension (R)” value ([1]; cumulative dose 0.5 mg/kg I.V.) of the same compound?
The value was 21%.

And the “% reduction relative to control hypertension (R)” value ([1]; cumulative dose 1 mg/kg I.V.)?
Its value is 13%.

And the “% reduction relative to control hypertension (R)” value ([1]; cumulative dose 2 mg/kg I.V.)?
The value was 30%.

What about the “% reduction relative to control hypertension (R)” value ([1]; cumulative dose 4 mg/kg I.V.) of the same compound?
Its value is 30%.

What about the “% reduction relative to control hypertension (R)” value ([1]; cumulative dose 8 mg/kg I.V.) of the same compound?
Its value is 40%.

And the “% reduction relative to control hypertension (R)” value ([1]; cumulative dose 16 mg/kg I.V.)?
Its value is 49%.

And the “% reduction relative to control hypertension (R)” value ([1]; cumulative dose 32 mg/kg I.V.)?
The value was 66%.

And the “effectiveness versus Pizotifene” value [2]?
The value was “more effective than the second reference compound”.

And the “counteraction of stereotypic movements” value [3]?
The value was “does not counteract the stereotypic movements of the rat”.

And the “contraction inhibiting dose 50” value [4]?
The value was ~0.2 mg/L.

And the anti-histamine properties [5]?
The anti-histamine properties was “No anti-histamine properties were revealed”.

And the “hypertensive responses caused by blocking the carotid arteries” value ([6]; anaesthetised dog)?
The value was “reduces the hypertensive responses”.

And the “% reduction relative to control hypertension (R)” value ([6]; cumulative dose 0.5 mg/kg I.V.)?
Its value is 0%.

And the “% reduction relative to control hypertension (R)” value ([6]; cumulative dose 1 mg/kg I.V.)?
Its value is 30%.

And the “% reduction relative to control hypertension (R)” value ([6]; cumulative dose 2 mg/kg I.V.)?
The value was 43%.

What about the “% reduction relative to control hypertension (R)” value ([6]; cumulative dose 4 mg/kg I.V.) of the same compound?
The value was 48%.

What about the “% reduction relative to control hypertension (R)” value ([6]; cumulative dose 8 mg/kg I.V.) of the same compound?
Its value is 86%.

What about the “% reduction relative to control hypertension (R)” value ([6]; cumulative dose 16 mg/kg I.V.) of the same compound?
Its value is 90%.

What about the “% reduction relative to control hypertension (R)” value ([6]; cumulative dose 32 mg/kg I.V.) of the same compound?
The value was 100%.

And the “maintenance of graph normalisation” value ([7]; repeated doses 150 mg/day orally for 3 weeks)?
Its value is “maintained”.

What about the “graph of cerebral artery pulsatility” value ([7]; single 100 mg intramuscular injection) of the same compound?
Its value is “the graph moves towards normalisation in 2 hours”.

What about the “Time of hypnosis, mice treated / Time of hypnosis, control mice” value ([8]; I.P., 80 mg/kg, pentobarbital 60 mg/kg intraperitoneally) of the same compound?
Its value is 1.6.

What about the “extension of the duration of barbituric hypnosis” value ([8]; mouse, in vivo) of the same compound?
Its value is “does not extend the duration of barbituric hypnosis”.

What about the “hypertensive responses caused by small doses of nicotine” value ([9]; anaesthetised dog) of the same compound?
Its value is “reduces the hypertensive responses”.

What about the “% reduction of orthosympathetic component (R)” value ([9]; cumulative dose 0.5 mg/kg I.V.) of the same compound?
The value was 0%.

What about the “% reduction of orthosympathetic component (R)” value ([9]; cumulative dose 1 mg/kg I.V.) of the same compound?
Its value is 0%.

What about the “% reduction of orthosympathetic component (R)” value ([9]; cumulative dose 2 mg/kg I.V.) of the same compound?
The value was 0%.

What about the “% reduction of orthosympathetic component (R)” value ([9]; cumulative dose 4 mg/kg I.V.) of the same compound?
The value was 0%.

And the “% reduction of orthosympathetic component (R)” value ([9]; cumulative dose 8 mg/kg I.V.)?
The value was 0%.

What about the “% reduction of orthosympathetic component (R)” value ([9]; cumulative dose 16 mg/kg I.V.) of the same compound?
The value was 49%.

And the “% reduction of orthosympathetic component (R)” value ([9]; cumulative dose 32 mg/kg I.V.)?
Its value is 79%.

And the inhibition at 80 mg/kg ([10]; ip, I.P., 80 mg/kg)?
Its inhibition at 80 mg/kg is 22%.

What about the inhibition at 300 mg/kg ([10]; po, P.O., 300 mg/kg) of the same compound?
The inhibition at 300 mg/kg was 25%.

What about the inhibition at 80 mg/kg ([11]; Mus musculus, ip, I.P., 80 mg/kg, WINTER & FLATAKER method, read-out: inhibiting effect on spontaneous motility at maximum dose administered) of the same compound?
Its inhibition at 80 mg/kg is 26%.

And the inhibition at 300 mg/kg ([11]; Mus musculus, po, P.O., 300 mg/kg, WINTER & FLATAKER method, read-out: inhibiting effect on spontaneous motility at maximum dose administered)?
Its inhibition at 300 mg/kg is 20%.

And the “reduction of spontaneous motility” value ([11]; mouse, even in high doses)?
Its value is “only very slightly reduces the spontaneous motility of the mouse”.

And the “depressive action (central nervous system)” value ([11]; mouse, in vivo)?
Its value is “very little depressive action”.

And the “remission in particularly severe cases of "accompanied" migraines” value [12]?
The value was “the remission transformed the social life of the patient”.

What about the “General tolerance of the treatment” value ([12]; 80 patients) of the same compound?
Its value is “very satisfactory”.

What about the success ([12]; 80 patients) of the same compound?
Its success is 79%.

What about the “hypotensive response to acetylcholine or to excitation of the vagus nerve” value [13] of the same compound?
The value was “does not change the hypotensive response”.

And the ED50 [14]?
Its ED50 is ~3 mg/kg.

What about the anti-histamine properties [15] of the same compound?
The anti-histamine properties was “No anti-histamine properties were revealed”.

And the anticonvulsive action [16]?
The anticonvulsive action was “no anticonvulsive action”.

What about the “therapeutic effectiveness and tolerance versus oxetorone” value [17] of the same compound?
The value was “statistically superior to oxetorone”.

And the “% reduction relative to control hypertension (R)” value ([18]; cumulative dose 0.5 mg/kg I.V.)?
The value was 5%.

And the “% reduction relative to control hypertension (R)” value ([18]; cumulative dose 1 mg/kg I.V.)?
The value was 3%.

And the “% reduction relative to control hypertension (R)” value ([18]; cumulative dose 2 mg/kg I.V.)?
The value was 4%.

What about the “% reduction relative to control hypertension (R)” value ([18]; cumulative dose 4 mg/kg I.V.) of the same compound?
Its value is 21%.

What about the “% reduction relative to control hypertension (R)” value ([18]; cumulative dose 8 mg/kg I.V.) of the same compound?
The value was 40%.

What about the “% reduction relative to control hypertension (R)” value ([18]; cumulative dose 16 mg/kg I.V.) of the same compound?
The value was 68%.

And the “% reduction relative to control hypertension (R)” value ([18]; cumulative dose 32 mg/kg I.V.)?
Its value is 84%.

And the “hypertensive responses caused by adrenalin” value ([18]; anaesthetised dog)?
The value was “reduces the hypertensive responses”.

And the LD50 ([19]; ip, intraperitoneal (basis))?
The LD50 was 184 mg/kg.

And the LD50 ([19]; po, per os (basis))?
Its LD50 is 3600 mg/kg.

What about the LD50 ([19]; sc, subcutaneous (basis)) of the same compound?
The LD50 was 204 mg/kg.

And the LD50 ([19]; intravenous (basis))?
Its LD50 is 44 mg/kg.
